Data: patent publication US5741781A, “Mercaptoalkanoyldipeptide compounds” (Adir et Compagnie, priority 1995, dated 1998)

Columns and labels:
[1] = biological target: T1, renal neutral endopeptidase (NEP) (Mus musculus, UniProt Q61391); experiment: Inhibition in vivo of renal NEP, competition with [3H]HACBOGIy; conditions: mice, p.o. single dose 2.6 × 10^-6 mol/kg (1.5 mg/kg)
T1 construct: from tissue; host or cells: mouse kidney (in vivo, homogenised after sacrifice)
T1 sequence (Q61391 1-750): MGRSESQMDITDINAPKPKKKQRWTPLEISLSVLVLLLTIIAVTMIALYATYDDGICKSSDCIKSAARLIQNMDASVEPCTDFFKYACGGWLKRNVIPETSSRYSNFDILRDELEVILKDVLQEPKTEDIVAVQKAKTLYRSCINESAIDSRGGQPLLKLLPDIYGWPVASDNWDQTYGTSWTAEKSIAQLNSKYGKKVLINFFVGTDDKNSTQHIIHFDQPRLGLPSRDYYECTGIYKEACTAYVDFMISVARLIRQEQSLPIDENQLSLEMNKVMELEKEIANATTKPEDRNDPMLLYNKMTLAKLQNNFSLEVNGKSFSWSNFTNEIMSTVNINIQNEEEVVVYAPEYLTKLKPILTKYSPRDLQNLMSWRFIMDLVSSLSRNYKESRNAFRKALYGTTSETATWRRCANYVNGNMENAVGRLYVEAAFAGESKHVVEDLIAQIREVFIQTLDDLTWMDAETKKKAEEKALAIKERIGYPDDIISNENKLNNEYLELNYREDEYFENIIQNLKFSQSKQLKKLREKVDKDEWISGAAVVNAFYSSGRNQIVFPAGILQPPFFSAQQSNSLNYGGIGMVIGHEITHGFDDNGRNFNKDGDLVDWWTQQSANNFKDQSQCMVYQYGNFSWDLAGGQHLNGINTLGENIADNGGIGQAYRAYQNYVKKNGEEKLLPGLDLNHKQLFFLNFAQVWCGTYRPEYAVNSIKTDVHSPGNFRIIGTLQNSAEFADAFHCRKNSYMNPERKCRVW
Procedure: (§1) The compounds are administrated per os to mice in a single dose. Inhibition of both enzymes is measured during a time period from 1 hour to 16 hours by competitive experiments with specific radiolabelled markers for each enzyme. After i.v. administration of a radiolabelled ACE inhibitor ([^3 H]trandolaprilate) or a radiolabelled NEP inhibitor ([^3 H]HACBOGIy), the animal is sacrificed and the lungs or the kidneys are removed. The organs are homogenized and the radioactivity associated to these homogenates is measured by liquid scintillation as described in the protocol by M. C. Fourni6-Zaluski et al. (J. Med. Chem., 37, (1994), 1070-1083).

[2] = biological target: T2, pulmonary peptidyldipeptidase A (ACE) (Mus musculus, UniProt P09470); experiment: Inhibition in vivo of pulmonary ACE, competition with [3H]trandolaprilate; conditions: mice, p.o. single dose 2.6 × 10^-6 mol/kg (1.5 mg/kg)
T2 construct: from tissue; host or cells: mouse lung (in vivo, homogenised after sacrifice)
T2 sequence (P09470 35-1312): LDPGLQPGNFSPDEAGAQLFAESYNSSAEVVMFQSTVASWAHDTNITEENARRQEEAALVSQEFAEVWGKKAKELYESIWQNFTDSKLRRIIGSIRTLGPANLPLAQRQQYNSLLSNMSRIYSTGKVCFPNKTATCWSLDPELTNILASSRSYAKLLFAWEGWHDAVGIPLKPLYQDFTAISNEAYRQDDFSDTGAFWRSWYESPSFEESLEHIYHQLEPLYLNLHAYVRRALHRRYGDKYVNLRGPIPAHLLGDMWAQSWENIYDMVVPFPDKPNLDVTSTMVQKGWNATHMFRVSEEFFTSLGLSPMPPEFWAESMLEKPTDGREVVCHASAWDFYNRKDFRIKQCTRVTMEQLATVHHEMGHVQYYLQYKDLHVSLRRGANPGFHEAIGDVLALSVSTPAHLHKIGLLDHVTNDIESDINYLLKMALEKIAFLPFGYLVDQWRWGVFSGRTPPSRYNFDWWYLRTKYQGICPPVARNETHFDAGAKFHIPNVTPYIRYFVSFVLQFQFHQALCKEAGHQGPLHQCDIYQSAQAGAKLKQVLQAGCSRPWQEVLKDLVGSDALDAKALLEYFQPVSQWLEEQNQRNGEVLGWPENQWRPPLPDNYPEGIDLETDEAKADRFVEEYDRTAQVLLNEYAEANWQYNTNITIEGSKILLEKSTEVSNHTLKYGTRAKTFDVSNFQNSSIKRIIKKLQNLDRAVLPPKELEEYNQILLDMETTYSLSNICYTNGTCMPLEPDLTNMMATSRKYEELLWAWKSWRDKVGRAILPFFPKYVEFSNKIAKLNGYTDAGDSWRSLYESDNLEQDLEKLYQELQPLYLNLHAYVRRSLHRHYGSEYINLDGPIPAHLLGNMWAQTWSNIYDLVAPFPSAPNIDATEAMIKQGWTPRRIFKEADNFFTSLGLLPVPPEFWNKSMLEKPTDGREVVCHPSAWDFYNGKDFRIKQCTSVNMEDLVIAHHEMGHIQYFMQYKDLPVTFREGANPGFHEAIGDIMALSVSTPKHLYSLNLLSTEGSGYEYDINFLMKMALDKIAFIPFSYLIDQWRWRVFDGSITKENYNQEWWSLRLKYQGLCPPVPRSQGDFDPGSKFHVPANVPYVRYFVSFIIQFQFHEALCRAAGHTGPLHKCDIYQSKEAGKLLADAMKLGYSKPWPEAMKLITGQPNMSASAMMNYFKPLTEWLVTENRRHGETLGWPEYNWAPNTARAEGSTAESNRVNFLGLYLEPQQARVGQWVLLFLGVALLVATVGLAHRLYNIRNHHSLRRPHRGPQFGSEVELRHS
Procedure: as §1

[3] = test system: spontaneously hypertensive male rat (SHR); experiment: Anti-hypertensive effect in the spontaneously hypertensive rat (SHR); format: in vivo
Procedure: The anti-hypertensive effect of the compounds of the invention is determined in vivo in the rat affected by a hypertension induced by the administration of DOCA salt (deoxycorticosterone acetate) and in the spontaneously hypertensive male rat (SHR), in accordance with the protocol described by Trapani et al. (J. Cardiovasc. Pharmacol., 14, (1989), 419-424). In that test the compounds of the invention are shown to be powerful anti-hypertensives and to be non-toxic.

[4] = biological target: neutral endopeptidase (NEP) (Homo sapiens, UniProt P08473); experiment: Inhibitory effect in vitro on neutral endopeptidase, [3H]-D-Ala2-Leu-encephalin as substrate; format: biochemical; conditions: comment on Table I
[5] = biological target: neutral endopeptidase called "encephalinase" (Homo sapiens, UniProt P08473); conditions: Nature, 228, (1980), 286-288; cited from earlier work
[6] = cited from earlier work

Chain of neutral endopeptidase called "encephalinase" (P08473 whole entry): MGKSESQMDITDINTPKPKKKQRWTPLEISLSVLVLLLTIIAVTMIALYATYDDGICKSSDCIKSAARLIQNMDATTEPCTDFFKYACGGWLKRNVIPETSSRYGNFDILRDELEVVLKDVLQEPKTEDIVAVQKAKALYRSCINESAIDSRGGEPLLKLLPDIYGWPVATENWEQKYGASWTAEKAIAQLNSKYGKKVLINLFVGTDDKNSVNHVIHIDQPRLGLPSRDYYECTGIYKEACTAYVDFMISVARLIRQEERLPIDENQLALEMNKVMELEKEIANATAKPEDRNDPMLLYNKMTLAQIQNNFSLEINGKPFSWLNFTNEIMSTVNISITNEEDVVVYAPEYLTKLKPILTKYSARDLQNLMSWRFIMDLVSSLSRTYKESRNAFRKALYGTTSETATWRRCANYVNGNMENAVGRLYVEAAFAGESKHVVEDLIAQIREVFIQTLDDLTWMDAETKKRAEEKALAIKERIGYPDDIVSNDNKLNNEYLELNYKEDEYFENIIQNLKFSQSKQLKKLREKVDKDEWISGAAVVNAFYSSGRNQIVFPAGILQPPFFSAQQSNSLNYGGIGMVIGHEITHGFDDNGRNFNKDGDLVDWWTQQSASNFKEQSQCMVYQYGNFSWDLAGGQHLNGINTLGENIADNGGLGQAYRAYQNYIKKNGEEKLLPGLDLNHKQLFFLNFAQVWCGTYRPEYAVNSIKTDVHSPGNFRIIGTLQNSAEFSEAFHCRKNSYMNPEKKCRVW
Chain of neutral endopeptidase (NEP) (P08473 whole entry, species assumed): as the sequence (P08473 whole entry) above

## O=C(NCC(=O)N1[C@@H](c2cccc(O)c2)CC[C@H]1C(=O)O)[C@@H](S)Cc1ccc(O)cc1 [Example 47, N-[N-(5R)-[(2S)-2-mercapto-3-(para-hydroxyphenyl)propanoyl]glycyl]5-(meta-hydroxyphenyl)-L-proline]
[1]; 1 h after administration
  % inhibition renal NEP: 75 ± 3%
[1]; 2 h after administration
  % inhibition renal NEP: 70 ± 5%
[1]; 4 h after administration
  % inhibition renal NEP: 74 ± 4%
[1]; 8 h after administration
  % inhibition renal NEP: 60 ± 10%
[1]; 16 h after administration
  % inhibition renal NEP: 48 ± 4%
[2]; 1 h after administration
  % inhibition pulmonary ACE: 90 ± 1%
[2]; 2 h after administration
  % inhibition pulmonary ACE: 86 ± 3%
[2]; 4 h after administration
  % inhibition pulmonary ACE: 87 ± 3%
[2]; 8 h after administration
  % inhibition pulmonary ACE: 73 ± 3%
[2]; 16 h after administration
  % inhibition pulmonary ACE: 20 ± 8%
[3]; p.o. 25 mg/kg/day Day 1 to Day 6, n = 10, Day 0
  Systolic blood pressure (mm Hg) Treated animals: 210 ± 5 mm Hg
[3]; p.o. 25 mg/kg/day Day 1 to Day 6, n = 10, Day 1
  Systolic blood pressure (mm Hg) Treated animals: 212 ± 3 mm Hg
[3]; p.o. 25 mg/kg/day Day 1 to Day 6, n = 10, Day 2
  Systolic blood pressure (mm Hg) Treated animals: 211 ± 1 mm Hg
[3]; p.o. 25 mg/kg/day Day 1 to Day 6, n = 10, Day 3
  Systolic blood pressure (mm Hg) Treated animals: 210 ± 2 mm Hg
[3]; p.o. 25 mg/kg/day Day 1 to Day 6, n = 10, Day 4
  Systolic blood pressure (mm Hg) Treated animals: 205 ± 2 mm Hg
[3]; p.o. 25 mg/kg/day Day 1 to Day 6, n = 10, Day 5
  Systolic blood pressure (mm Hg) Treated animals: 205 ± 1 mm Hg
[3]; p.o. 25 mg/kg/day Day 1 to Day 6, n = 10, Day 6
  Systolic blood pressure (mm Hg) Treated animals: 213 ± 2 mm Hg
[3]; p.o. 25 mg/kg/day Day 1 to Day 6, n = 10, Day 7
  Systolic blood pressure (mm Hg) Treated animals: 209 ± 4 mm Hg
[3]; p.o. 25 mg/kg/day Day 1 to Day 6, n = 10, Day 8
  Systolic blood pressure (mm Hg) Treated animals: 212 ± 2 mm Hg
[3]; p.o. 25 mg/kg/day Day 1 to Day 6, n = 10, Day 9
  Systolic blood pressure (mm Hg) Treated animals: 208 ± 2 mm Hg
[3]; p.o. 25 mg/kg/day Day 1 to Day 6, n = 10, Day 10
  Systolic blood pressure (mm Hg) Treated animals: 214 ± 1 mm Hg

## O=C(O)CNC(=O)C(CS)Cc1ccccc1 (stereo not drawn) [thiorphan, N-(2-mercaptomethyl-3-phenyl-1-oxopropyl)glycine]
[4]
  activity on NEP versus ACE in words: exhibits an activity on neutral endopeptidase (NEP) only
[5]
  inhibitory property, concentration: nanomolar concentration
[6]
  effect in clinical trials: causes natriuresis and diuresis without any significant hypotensive effect and without decreasing cardiac overload
